Experimental data: article PMC8688152, “Distinct classes of potassium channels fused to GPCRs as electrical signaling biosensors” (Cell Reports Methods, 2021)

Key:
M2_T-00-46 = target: T1, M2_T-00-46 (UniProt P08172+P97438); assay: TEVC recording of M2_T-00-46 ICCR in Xenopus oocytes; format: cell-based, human (M2), mouse (TREK-1); conditions: 91 mM K+, Vm = −50 mV, mean ± SEM
T1 construct: full-length (−00) or M2 deleted of its last nine residues (−09) in the indicated ICCRs; expressed in transfected cells; host or cells: Xenopus oocytes (mRNA injection); gene synthesized by GeneCust
Protocol: (§1) Microelectrodes were filled with […]. […] The membrane voltage was clamped to −50 mV.

M2_T-00-37 = target: T2, M2_T-00-37 (UniProt P08172+P97438); assay: TEVC recording of M2_T-00-37 ICCR in Xenopus oocytes; format: cell-based, human (M2), mouse (TREK-1); conditions: 91 mM K+, Vm = −50 mV, mean ± SEM
T2 construct: M2_T-00-37 with zero deletion in the M2 receptor C terminus (full-length receptor); expressed in transfected cells; host or cells: Xenopus oocytes (mRNA injection)
Protocol: as §1

M2_T-00-40 = target: T3, M2_T-00-40 (UniProt P08172+P97438); assay: TEVC recording of M2_T-00-40 ICCR in Xenopus oocytes; format: cell-based, human (M2), mouse (TREK-1); conditions: 91 mM K+, Vm = −50 mV, mean ± SEM
T3 construct: full-length (−00) or M2 deleted of its last nine residues (−09) in the indicated ICCRs; expressed in transfected cells; host or cells: Xenopus oocytes (mRNA injection)
Protocol: as §1

M2_Kir6.2-09-25 = test system: M2_Kir6.2-09-25; design: method as in Moreau et al., 2017; conditions: Kir6.2 ICCRs; ref Moreau et al., 2017; read-out: IC50 observed with Kir6.2 ICCRs; cited from earlier work
M2_T(G293E)-00-40 = target: T4, M2_T(G293E)-00-40 (UniProt P08172+P97438, G308E); format: cell-based, human (M2), mouse (TREK-1); conditions: ACh 5 μM; TEVC, Xenopus oocytes; mean ± SEM
T4 construct: full-length (−00) or M2 deleted of its last nine residues (−09) in the indicated ICCRs; expressed in transfected cells; host or cells: Xenopus oocytes (mRNA injection)
Protocol: as §1

[1] = test system: Kir3.4T (Kir3.4(S143T)) co-expressed with M2_T constructs; assay: G protein activation assay: Kir3.4T co-expressed with M2_T ICCRs (TEVC); format: cell-based, Xenopus oocytes; conditions: 5 μM ACh
Protocol: as §1

[2] = test system: I252T mutant of M2_T-00-40; format: cell-based, human (M2), mouse (TREK-1); conditions: ACh 5 μM; I252T versus WT M2_T-00-40
Protocol: (§2) Xenopus oocytes were prepared as previously reported ([Moreau et al., 2008]). Briefly, after surgical retrieval, the oocytes were defolliculated by type 1A collagenase. Each oocyte was injected with 50 nl of RNAse-free water containing the desired mRNAs. The mRNA quantities used per oocyte were: ICCR with Kcv, 2.7 ng (M2_Kcv and D2_Kcv) and 2.9 ng (OXTR_Kcv); ICCR with mTREK-1, 4.2 ng; ICCR with Kir6.2, 4.3 ng; M2, 2.3 ng; D2, 2.2 ng; Kir3.4T, 2.2 ng; Kcv 0.46 ng and mTREK-1, 2.1 ng. Microinjected oocytes were incubated 2 to 3 days at 19°C in modified-Barth's solution (in mM: 1 KCl, 0.82 MgSO4, 88 NaCl, 2.4 NaHCO3, 0.41 CaCl2, 16 HEPES, pH 7.4) supplemented with 100 U.ml^−1 of penicillin and streptomycin and 0.1 mg.mL^−1 of gentamycin. Animal handling and experiments fully conformed to European regulations and were approved by the French Ministry of Higher Education and Research (APAFIS#4420-2016030813053199 v4 to CM). […]
(§3) Two-electrode voltage-clamp (TEVC) recordings were performed automatically with HiClamp robots (MultiChannel Systems). […] Ligand effects were measured in high potassium concentration buffer with the membrane potential clamped to −50 mV and at 19°C.
(§4) Change of potassium current induced by ligand was calculated either with the barium-sensitive currents as a 0-reference for Kcv-based ICCRs or with the currents in ND96 for mTREK-1 ICCRs. […]

[3] = target: T5, I252T mutant of M2_T-00-40 (UniProt P08172+P97438, I267T); format: cell-based, human (M2), mouse (TREK-1)
T5 construct: full-length (−00) or M2 deleted of its last nine residues (−09) in the indicated ICCRs; expressed in transfected cells; host or cells: Xenopus oocytes (mRNA injection)
Protocol: as §2, §3, §4

CC(=O)OCC[N+](C)(C)C [ACh, acetylcholine]
activation: % of current change induced by ACh 5 μM on M2_T-00-46 (M2_T-00-46): 35.2% ± 1.6%
activation: % of current change induced by ACh 5 μM on M2_T-00-37 (M2_T-00-37): 3.9% ± 0.9%
activation: % of current change induced by ACh 5 μM on M2_T-00-40 (M2_T-00-40): 20.2% ± 3.5%
IC50 (M2_Kir6.2-09-25): 1250 nM
activation induced by ACh on the hyperactive G293E mutant of M2_T-00-40 (M2_T(G293E)-00-40): 32.5% ± 3.6%
G protein activation (Kir3.4T) by M2_T-09-40 and -09-43 [1]: still able to activate Gi/o proteins
activation of Kir3.4T co-expressed with M2_T-00-37, −40, −43 and −46 ([1]; no significant differences between the four constructs): clear activation
increase of ACh-induced activation of the I252T mutant compared with the WT counterpart [2]: more than 4 fold
activation induced by ACh on the I252T mutant of M2_T-00-40 [3]: 84.7% ± 11.2%
